Measurements published in US6803044B1, “Antimicrobial and anti-inflammatory peptides for use in human immunodeficiency virus” (priority 1999, dated 2004).
Ends that are not written are not given here.

Legend:
[1] = centrally administered, rabbit; cited from earlier work
[2] = tested on: C. albicans (clinical isolate); test: Melanocortin peptides on C. albicans viability (colony forming units); type: cell-based; details: for reduction of C. albicans CFU at higher concentrations: up to 10^−4M; for C. albicans colony forming units (CFU): two hours at 37° C.
Experimental: S. aureus (ATCC 29213) and C. albicans (clinical isolate) were obtained from the collection of the Department of Microbiology, Ospedale Maggiore di Milano. C. albicans were maintained on Sabouraud'[…] periodically transferred to Sabouraud's agar plates and incubated for 48 hours at 28° C. To prepare stationary growth phase yeast, a colony was taken from the agar plate and transferred into 30 ml Sabouraud-dextrose broth and incubated for 72 hours at 32° C. Cells were centrifuged at 100×g for 10 minutes and the pellet was washed twice with distilled water. Cells were counted and suspended in Hank's balanced salt solution (“HBSS”) to the desired concentration. Viability, determined by the exclusion of 0.01% methylene blue, remained >98%. […] Cells were then washed in cold distilled water and diluted with HBSS to a concentration of 100 organisms/ml. One ml aliquots were dispensed on blood agar plates and incubated for 48 hours at 37° C. Organism viability was estimated from the number of colonies formed. In subsequent experiments using similar procedures we compared activity of α-MSH (4-10), (6-13), (11-13), ACTH (1-39), (18-39), and fluconazole, the latter an established […]. […] There were at least six replicates for each concentration of peptide. […] The reaction was stopped after three minutes by the addition of ice cold ethanol. cAMP was measured in duplicate using a commercial enzyme immunoassay (EIA) kit (Amersham, United Kingdom) after extraction via the liquid-phase method according to manufacturer's instructions.

[3] = tested on: chronically HIV-1 infected promonocytic U1 cell line; test: p24 antigen release by stimulated U1 cells (ELISA); type: cell-based; details: for most effective concentration for HIV inhibition (p24 release): tested 10^−13 to 10^−4 M
Experimental: (§1) Before use, cells were washed three times with HBSS (Gibco) to remove extracellular virus. […] In crowding experiments, U1 cells were seeded at the density of 2×10^5 mL and maintained in culture at 37° C. in 5% CO2 without change of medium for 7 days. […] In all experiments each condition was tested in triplicate.
(§2) p24 antigen release (Cellular Products Inc. Buffalo, N.Y., USA) and reverse transcriptase (ELISA Retrosys RT assay, Innovagen, Lund, Sweden) were determined using commercial ELISA kits.

[4] = tested on: chronically HIV-1 infected promonocytic U1 cell line; test: reverse transcriptase (RT) release by stimulated U1 cells (ELISA); type: cell-based; details: U1 cells induced by IL-6, IL-10, PMA, and in crowding condition; KPV 10^−5 M
Experimental: as §1, §2

[5] = tested on: HIV-1 RNA in PMA-stimulated U1 cells; test: Northern blot for HIV-1 RNA in U1 cells; type: cell-based; details: PMA (1 ng/mL)-stimulated U1 cells; KPV 10^−5 M; 24 h
From the text: Total RNA was extracted by the guanidine thiocyapate phenol method using an RNA isolation kit (Tripure, Boehringer Mannheim, Indianapolis, Ind.), following the manufacturer's instructions. Ten μg of total RNA were separated by 0.8% agarose/formaldehyde gel electrophoresis and transferred onto nylon membrane. The filters were baked and hybridized for 18 hr with α^32 P-labeled HIV-full length probe (kind gift of L. Turchetto and E. Vicenzi, S. Raffaele Hospital, Milan, Italy). The radiolabelling reaction was performed using a DNA labelling kit (Ready-to-go, Pharmacia Biotech, San Francisco, Calif.). Filters were washed and exposed to X-ray film for 5 days. The labeled probe was removed by washing at 80° C. in 0.1×SSC containing 0.1% sodium dodecyl sulphate and then rehybridized witb α^32 P-labeled glyceraldehyde-3-phosphate dehydrogenase (GAPDH) cDNA probe. Densitometric analysis was performed using ImageMaster™ VDS 3.0 software (Pharmacia Biotech) and results were expressed as density units.

[6] = tested on: HIV-1Ba-L strain in human MDM; test: RT release in acutely infected monocyte derived macrophages (MDM); type: cell-based; details: KPV 10^−5 M daily, more pronounced on day 6, still significant on day 21
Experimental: as §2
Human peripheral blood mononuclear cells (PBMCs) were isolated from normal donors by Ficoll-Hypaque density gradient centrifugation. Monocytes were isolated by Percoll gradient separation and allowed to differentiate into macrophages (MDM) in complete medium RPMI plus 20% FCS in 24-well tissue culture plates at 10^6 cells/mL for 7-days. MDM were infected with monocytotropic HIV-1Ba-L strain (1:10) overnight. The undiluted viral stock contained 10^7 infectious Units/mL. After 24 h, MDM were washed and resuspended in complete medium, replaced 3 times/week, for 3 weeks. RT activity was measured weekly post-infection.

NF-κB = test: Electrophoretic mobility shift assay of NF-κB DNA-binding activity in U1 cells; type: cell-based; details: 10^−5 M peptide
From the text: The mixtures were run on a 5% (30:1) acrylamide gel in 1× Tris-Borate-EDTA (TBE). Gels were dried and exposed to film for autoradiography (3 days).

S. aureus (ATCC 29213) = test: Melanocortin peptides on S. aureus viability (colony formation); type: cell-based; details: two hours at 37° C.
Experimental: S. aureus (ATCC 29213) and C. albicans (clinical isolate) were obtained from the collection of the Department of Microbiology, Ospedale Maggiore di Milano. C. albicans were maintained on Sabouraud'[…] periodically transferred to Sabouraud's agar plates and incubated for 48 hours at 28° C. To prepare stationary growth phase yeast, a colony was taken from the agar plate and transferred into 30 ml Sabouraud-dextrose broth and incubated for 72 hours at 32° C. Cells were centrifuged at 100×g for 10 minutes and the pellet was washed twice with distilled water. Cells were counted and suspended in Hank's balanced salt solution (“HBSS”) to the desired concentration. Viability, determined by the exclusion of 0.01% methylene blue, remained >98%. […] Cells were then washed in cold distilled water and diluted with HBSS to a concentration of 100 organisms/ml. One ml aliquots were dispensed on blood agar plates and incubated for 24 hours at 37° C. Organism viability was estimated from the number of colonies formed.

S. aureus = test: Urokinase-induced growth enhancement of S. aureus; type: cell-based; details: peptide 10^−6M; urokinase 500 U; four hours
From the text: In experiments on S. aureus, we determined the influence of α-MSH on urokinase-induced growth-enhancement. Hart, D. A.; Loule, T.; Krulikl, W.; Reno, C., Staphylococcus Aureus Strains Differ in Their in Vitro Responsiveness to Human Urokinase: Evidence that Methicillin-Resistant Strains are Predominantly Nonresponsive to the Growth-Enhancing Effects of Urokinase, Can. J. Microbiol. 42, 1024-31 […]. […] Appropriate dilutions of S. aureus were dispensed on agar plates and colonies counted after 24 hours incubation at 37° C.

C. albicans [7] = test: α-MSH peptides on C. albicans germination (horse serum-induced); type: cell-based; details: horse serum-induced germ tube formation; peptide 10^−4M; 60 minutes
Experimental: C. albicans from stationary phase cultures were washed twice with distilled water and suspended in HBSS to a final concentration of 2×10^6/ml. Hyphal growth was induced by addition of 10% inactivated horse serum (GMCO/BRL, Paisley, Great Britain) to yeast incubated for 45 minutes at 37° C. with continuous shaking. […] The percentage of filamentous cells was evaluated under a light microscope with the aid of a hartocytometer. Experiments were run in triplicate and at least 200 cells were scored. Photomicrographs were taken with a MC100 […] attached to an Axioskop Zeiss microscope.

[8] = tested on: C. albicans killing by human neutrophils; test: C. albicans killing by human neutrophils; type: cell-based; details: two hours at 37° C.
Experimental: Venous blood (20 ml) from healthy volunteers was anticoagulated with heparin. Neutrophils were isolated using dextran sedimentation and Ficoll-Hypaque (Sigma Chemical Co., St. Louis, Mo., USA) centrifugation. Erythrocytes were lysed via hypotonic shock. Neutrophils represented at least 97% of the cell suspension. Cell viability, estimated by trypan blue exclusion, was >98%. Neutrophils were suspended to final concentration in HBSS. […] After incubation, the culture tubes were placed on ice to stop growth and extracellular organisms were washed twice with centrifugation at 100×g at 4° C. A 2.5% sodium desoxycholate solution was added to the suspension and the tubes were shaken for five minutes. Cold distilled water was added to obtain a suspension of 10^6 cells/ml. Two 1/100 serial dilution in HBSS were made to obtain a final suspension of 100 cells/ml. Aliquots of 1 ml were dispensed on blood agar plates and incubated for 48 hours at 37° C. Colony forming units (“CFU”) were counted at the end of the incubation period. Experiments were run in triplicate and repeated using blood from five different donors.

C. albicans [9] = test: cAMP accumulation in C. albicans (EIA); type: cell-based; details: 10^−6M; three minutes
Experimental: The reaction was stopped after three minutes by the addition of ice cold ethanol. cAMP was measured in duplicate using a commercial enzyme immunoassay (EIA) kit (Amersham, United Kingdom) after extraction via the liquid-phase method according to manufacturer's instructions.

[10] = in vivo; cited from earlier work
[11] = 10^−4M melanocortin peptides (FIG. 11 legend: 10^−6M)

10-13 sequence: α-MSH (11-13) with glycine added to form the 10-13 sequence (GKPV; ends and bridges not checked; UniProt P01189 147-150, looked up, fragment)
antipyretic potency relative to the 11-13 sequence [1]: slightly decreased potency

ACTH (1-39): melanocortin peptide ACTH (1-39) (SYSMEHFRWGKPVGKKRRPVKVYPNGAEDESAEAFPLEF; Corticotropin; UniProt P01189 138-176, looked up) [reference compound]
relative potency in reducing C. albicans viability [2, 11]: did not reduce C. albicans viability
reduction of C. albicans CFU at higher concentrations [2]: likewise ineffective

ACTH fragment (18-39): ACTH fragment (18-39) (CLIP) [reference compound]
relative potency in reducing C. albicans viability [2, 11]: did not reduce C. albicans viability
reduction of C. albicans CFU at higher concentrations [2]: likewise ineffective

HFRWGKPV [α-MSH (6-13)]
relative potency in reducing C. albicans viability [2, 11]: most effective

KPV
most effective concentration for HIV inhibition (p24 release) ([3]; TNF-α-stimulated U1 cells): 10^−5 M
p24 release ([3]; U1 cells induced by IL-6, IL-10, PMA, and in crowding condition, KPV 10^−5 M): significantly inhibited
RT release [4]: significantly inhibited
reduction of both spliced and unspliced HIV-1 RNA [5]: approximately 50%
RT release [6]: significantly inhibited
NF-κB activation (DNA binding) (NF-κB; TNF-α-treated U1 cells): significantly reduced
NF-κB activation (DNA binding) (NF-κB; resting U1 cells): did not alter
S. aureus colony formation (S. aureus (ATCC 29213)): inhibited
enhancing effect of urokinase on S. aureus colony formation (S. aureus): significantly inhibited
C. albicans colony forming units (CFU) [2]: greatly reduced
reduction in the number of filamentous cells (inhibition of germination) (C. albicans [7]): 54-58%
killing of C. albicans by human neutrophils [8]: enhanced killing
cAMP content of C. albicans (C. albicans [9]): enhanced cAMP content

MEHFRWG [α-MSH sequence (4-10)]
inhibition of C. albicans CFU [2, 11]: approximately 50%

NH2-Val-Pro-Lys-Ac-Cys-Cys-Ac-Lys-Pro-Val-NH2 (Ac-CKPV-NH2; also: dimer linked through Cys-Cys) [KPV dimer]
S. aureus colony formation (S. aureus (ATCC 29213)): inhibited
effectiveness against microbes compared with α-MSH (11-13) ([2]; S. aureus and C. albicans): at least as effective as α-MSH (11-13)
C. albicans colony forming units (CFU) [2]: inhibited

SYSMEHFRWGKPV (listed as Homo sapiens) [α-MSH (1-13)]
inhibition of p24 release ([3]; TNF-α-stimulated U1 cells, picomolar peptide concentrations that occur in human plasma): 34-36%
most effective concentration for HIV inhibition (p24 release) ([3]; TNF-α-stimulated U1 cells): 10^−5 M
S. aureus colony formation (S. aureus (ATCC 29213)): inhibited
enhancing effect of urokinase on S. aureus colony formation (S. aureus): significantly inhibited
C. albicans colony forming units (CFU) [2]: greatly reduced
killing of C. albicans by human neutrophils [8]: enhanced killing
cAMP content of C. albicans (C. albicans [9]): enhanced cAMP content

[Nle^4, D-Phe^7], α-MSH
potency in reducing fever relative to parent peptide [10]: approximately ten times more potent than the parent peptide
